# Columns and labels:
# Type in all cases: ADME, organism-based
# [1] = Ratio of drug level in HIV-infected pregnant woman cord blood plasma to maternal blood plasma at 1250 mg, po BID by HPLC/UV analysis; details: female, human
# [2] = Drug level in HIV-infected pregnant woman amniotic fluid at 1250 mg, po BID by HPLC/UV analysis; details: human, in vivo
# [3] = Drug level in HIV-infected pregnant woman maternal blood plasma at 1250 mg, po BID by HPLC/UV analysis; details: human, in vivo
# [4] = Ratio of drug level in HIV-infected pregnant woman amniotic fluid to maternal blood plasma at 1250 mg, po BID by HPLC/UV analysis; details: female, human
# [5] = Drug level in HIV-infected pregnant woman cord blood plasma at 1250 mg, po BID by HPLC/UV analysis; details: human, in vivo
# [6] = Drug level in HIV-infected pregnant woman cord blood plasma at 150 mg, po BID by LC/MS/MS analysis; details: human, in vivo
# [7] = Drug level in HIV-infected pregnant woman amniotic fluid at 150 mg, po BID by LC/MS/MS analysis; details: human, in vivo
# [8] = Drug level in HIV-infected pregnant woman maternal blood plasma at 150 mg, po BID by LC/MS/MS analysis; details: human, in vivo
# [9] = Drug level in HIV-infected pregnant woman maternal blood plasma at 400 mg, po BID by HPLC/UV analysis; details: human, in vivo
# [10] = Drug level in HIV-infected pregnant woman cord blood plasma at 400 mg, po BID by HPLC/UV analysis; details: human, in vivo
# [11] = Drug level in HIV-infected pregnant woman amniotic fluid at 400 mg, po BID by HPLC/UV analysis; details: human, in vivo
# [12] = Drug level in HIV-infected pregnant woman cord blood plasma at 200 mg, po BID by HPLC/UV analysis; details: human, in vivo
# [13] = Ratio of drug level in HIV-infected pregnant woman amniotic fluid to maternal blood plasma at 200 mg, po BID by HPLC/UV analysis; details: female, human
# [14] = Ratio of drug level in HIV-infected pregnant woman cord blood plasma to maternal blood plasma at 200 mg, po BID by HPLC/UV analysis; details: female, human
# [15] = Drug level in HIV-infected pregnant woman amniotic fluid at 200 mg, po BID by HPLC/UV analysis; details: human, in vivo
# [16] = Drug level in HIV-infected pregnant woman maternal blood plasma at 200 mg, po BID by HPLC/UV analysis; details: human, in vivo
# [17] = Ratio of drug level in HIV-infected pregnant woman amniotic fluid to maternal blood plasma at 100 mg, po BID by HPLC/UV analysis; details: female, human
# [18] = Ratio of drug level in HIV-infected pregnant woman cord blood plasma to maternal blood plasma at 100 mg, po BID by HPLC/UV analysis; details: female, human
# [19] = Drug level in HIV-infected pregnant woman maternal blood plasma at 100 mg, po BID by HPLC/UV analysis; details: human, in vivo
# [20] = Drug level in HIV-infected pregnant woman cord blood plasma at 100 mg, po BID by HPLC/UV analysis; details: human, in vivo
# [21] = Drug level in HIV-infected pregnant woman amniotic fluid at 100 mg, po BID by HPLC/UV analysis; details: human, in vivo
# [22] = Drug level in HIV-infected pregnant woman maternal blood plasma at 300 mg, po QD by LC/MS/MS analysis; details: human, in vivo
# [23] = Ratio of drug level in HIV-infected pregnant woman amniotic fluid to maternal blood plasma at 300 mg, po QD by LC/MS/MS analysis; details: female, human
# [24] = Drug level in HIV-infected pregnant woman cord blood plasma at 300 mg, po QD by LC/MS/MS analysis; details: human, in vivo
# [25] = Ratio of drug level in HIV-infected pregnant woman cord blood plasma to maternal blood plasma at 300 mg, po QD by LC/MS/MS analysis; details: female, human
# [26] = Drug level in HIV-infected pregnant woman amniotic fluid at 300 mg, po QD by LC/MS/MS analysis; details: human, in vivo
# [27] = Drug level in HIV-infected pregnant woman amniotic fluid at 300 mg, po BID by LC/MS/MS analysis; details: human, in vivo
# [28] = Drug level in HIV-infected pregnant woman cord blood plasma at 300 mg, po BID by LC/MS/MS analysis; details: human, in vivo
# [29] = Drug level in HIV-infected pregnant woman maternal blood plasma at 300 mg, po BID by LC/MS/MS analysis; details: human, in vivo
structure (smiles),measurement,setting,value
Cc1c(O)cccc1C(=O)N[C@@H](CSc1ccccc1)[C@H](O)CN1C[C@H]2CCCC[C@H]2C[C@H]1C(=O)NC(C)(C)C,Kp,[1],0.49
same,Drug uptake,[2],12 ng/mL
same,Drug uptake,[3],65 ng/mL
same,Kp,[4],1
same,Drug uptake,[5],25 ng/mL
Nc1ccn([C@@H]2CS[C@H](CO)O2)c(=O)n1 [LAMIVUDINE],Drug uptake,[6],216 ng/mL
same,Drug uptake,[7],931 ng/mL
same,Drug uptake,[8],271 ng/mL
Cc1cccc(C)c1OCC(=O)N[C@@H](Cc1ccccc1)[C@@H](O)C[C@H](Cc1ccccc1)NC(=O)[C@H](C(C)C)N1CCCNC1=O [LOPINAVIR],Drug uptake,[9],3451 ng/mL
same,Drug uptake,[10],80 ng/mL
same,Drug uptake,[11],60 ng/mL
Cc1ccnc2c1NC(=O)c1cccnc1N2C1CC1 [NEVIRAPINE],Drug uptake,[12],1538 ng/mL
same,Kp,[13],0.53
same,Kp,[14],0.59
same,Drug uptake,[15],1385 ng/mL
same,Drug uptake,[16],2595 ng/mL
CC(C)c1nc(CN(C)C(=O)N[C@H](C(=O)N[C@@H](Cc2ccccc2)C[C@H](O)[C@H](Cc2ccccc2)NC(=O)OCc2cncs2)C(C)C)cs1 [RITONAVIR],Kp,[17],0.02
same,Kp,[18],0.55
same,Drug uptake,[19],256 ng/mL
same,Drug uptake,[20],20 ng/mL
same,Drug uptake,[21],12 ng/mL
C[C@H](Cn1cnc2c(N)ncnc21)OCP(=O)(O)O [TENOFOVIR ANHYDROUS],Drug uptake,[22],5 ng/mL
same,Kp,[23],158
same,Drug uptake,[24],30 ng/mL
same,Kp,[25],6
same,Drug uptake,[26],791 ng/mL
Cc1cn([C@H]2C[C@H](N=[N+]=[N-])[C@@H](CO)O2)c(=O)[nH]c1=O [ZIDOVUDINE],Drug uptake,[27],2249 ng/mL
same,Drug uptake,[28],605 ng/mL
same,Drug uptake,[29],557 ng/mL

# Reference: ChEMBL document CHEMBL1649445, “Genital tract, cord blood, and amniotic fluid exposures of seven antiretroviral drugs during and after pregnancy in human immunodeficiency virus type 1-infected women” (Antimicrob Agents Chemother, 2009)
